Measured values published in patent publication US4579866A, “Phenylacetamides as anti-allergy, anti-asthma and anti-inflammatory agents” (USV Pharmaceutical Corp., priority 1984, dated 1986).
pIC50: −log10 of the molar value.

Key:
[1] = biological target: T1, RAT 5-LIPOXYGENASE (Rattus norvegicus, UniProt P12527); assay: Biosynthesis of 5-HETE by rat polymorphonuclear leukocytes in vitro (inhibition of rat 5-lipoxygenase); type: cell-based; settings: rat neutrophils, A23187, 3 minutes at 30° C.; concentration at which 50% inhibition is observed; read-out: INHIBITION OF RAT 5-LIPOXYGENASE, I50
T1 construct: A suspension of rat neutrophils in buffer; endogenous in cells; host or cells: rat neutrophils (polymorphonuclear leukocytes)
T1 sequence (P12527 1-673): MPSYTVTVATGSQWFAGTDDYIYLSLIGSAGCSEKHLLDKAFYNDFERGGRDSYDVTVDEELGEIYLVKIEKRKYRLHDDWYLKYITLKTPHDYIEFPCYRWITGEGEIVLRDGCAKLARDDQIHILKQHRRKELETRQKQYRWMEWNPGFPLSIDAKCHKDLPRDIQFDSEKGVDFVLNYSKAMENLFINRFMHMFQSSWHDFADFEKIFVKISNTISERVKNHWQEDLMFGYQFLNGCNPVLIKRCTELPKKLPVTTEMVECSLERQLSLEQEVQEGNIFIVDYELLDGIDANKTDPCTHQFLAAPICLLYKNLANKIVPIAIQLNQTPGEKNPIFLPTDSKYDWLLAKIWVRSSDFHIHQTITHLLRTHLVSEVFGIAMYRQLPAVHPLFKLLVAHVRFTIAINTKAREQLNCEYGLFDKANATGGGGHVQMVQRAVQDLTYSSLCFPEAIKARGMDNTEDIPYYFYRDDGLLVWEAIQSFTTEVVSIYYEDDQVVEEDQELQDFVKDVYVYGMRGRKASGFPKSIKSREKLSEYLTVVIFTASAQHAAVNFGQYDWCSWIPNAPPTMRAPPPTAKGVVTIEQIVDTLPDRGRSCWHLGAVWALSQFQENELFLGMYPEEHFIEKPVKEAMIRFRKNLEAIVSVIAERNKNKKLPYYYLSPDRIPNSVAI
Method: Protocol for the Biosynthesis of 5-HETE by Rat Polymorphonuclear Leukocytes In Vitro
A suspension of rat neutrophils in buffer is incubated for 3 minutes at 30° C. with [^14 C]-arachidonic acid (AA) and calcium ionophore A23187. Citric Acid (2M) NDGA (10 mM) is used to quench the reaction. Following the addition of a trace amount of (^3 H)-5-HETE together with an excess of unlabeled 5-HETE to each tube, the mixture is extracted with chloroform/methanol. The organic layer is washed with dilute acid and an aliquot is transferred to glass tubes and dried. The residue is dissolved in a small volume of chloroform and an aliquot is spotted on silica gel TLC sheets, which are developed with an ethyl acetate/isoctane/water/acetic acid solvent system. The 5-HETE spots are visualized under UV light, cut out and placed in scintillation vials for counting. After adjusting for the extraction efficiency, the amount (pmole) of [^14 C]-5-HETE in each of the tubes is quantitated. The net pmoles of 5-HETE are obtained by subtracting the pmoles of 5-HETE in the tubes containing buffer alone (blank) from the pmoles of 5-HETE in the tubes containing […]. The ability of the test compounds to modulate the activity of this enzyme is determined by a decrease or increase in the net amount of 5-HETE produced.
(§1) If the percentage of inhibition exceeds 50%, the compounds are then evaluated in terms of response over a range of concentrations. From a plot of response against concentration, the I50 value is obtained. The I50 value is the concentration at which 50% inhibition is observed.

[2] = test system: LTC4; assay: Antagonism of leukotriene C4 binding (guinea pig peripheral lung strips, contraction); type: cell-based; settings: Cavia porcellus, leukotriene C4 usually 0.2 nM, 37° C., read-out: ANTAGONISM OF LTC4 BINDING, I50
Method: Protocol for Antagonism of Leukotrines C-4 Binding
Peripheral strips of guinea pig lungs are prepared and hung in tissue baths according to the procedure described by Drazen et al. (Proc. Nat'l. Acad. Sci., U.S.A. 77, 4354-4358, 1980). Male guinea pigs (Charles River, 250-400 g) are sacrificed by cervical dislocation and their lungs rapidly removed. The individual lobes are dissected free and rinsed in Assay Buffer (118 mM NaCl, 5.4 mM KCl, 2.5 mM CaCl2, 25 mM […], 1 mM MgSO4, 1 mM NaH2 PO4, 11 mM glucose) which is continuously aerated with 95% oxygen/5% carbon dioxide. After the lobes are extensively rinsed, a strip of lung tissue, approximately 2 mm thick and 5-8 cm long, is cut off the sharpest and most peripheral portion of each lobe. The peripheral edge is cut almost completely around the outside of the lobe so that a U-shaped strip is obtained. These strips are rinsed in Assay Buffer and then connected with surgical silk thread to the support rods of the water jacketed tissue baths (10 ml chambers). The other ends of the strips are connected to Gould UC3 pressure transducers which had been previously calibrated. The tissue baths are aerated with 95% oxygen/5% carbon dioxide and maintained at 37° C. The tension on these strips are adjusted to 500 mg. The tissues are initially washed with fresh buffer every 5-10 minutes for about 30 minutes and thereafter washed with fresh assay buffer at least every 20 minutes.
After the tissue had been repeatedly washed and allowed to equilibrate in the tissue baths, they are challenged with 1 μM histamine to standardize the contractions for each tissue.
Responses of each tissue to a predetermined concentration (usually 0.2 nM) of leukotriene C4 are then obtained. Compounds are then tested for their ability to antagonize to leukotriene C4 immediately upon challenge.
as §1

pIC50 [1] | pIC50 [2] | SMILES
6.10 | 5.05 | CCCOc1ccc(CC(=O)N[C@H](Cc2ccccc2)C(=O)OC)cc1Cl [3-Chloro-4-n-propyloxyphenylacetyl-D-phenylalanine methyl ester]
6.30 | 4.92 | C#CCOc1ccc(CC(=O)N[C@H](Cc2ccccc2)C(=O)OC)cc1Cl [3-Chloro-4-propargyloxyphenylacetyl-D-phenylalanine methyl ester]
5.62 | 5.52 | C=CCOc1ccc(CC(=O)N(C)CCc2ccccc2)cc1Cl [N--[4-Alloyoxy-3-chlorophenylacetyl]-N--methyl-2-phenylethylamine]
5.52 | 5.30 | CN(CC(O)c1ccccc1)C(=O)Cc1ccc(OCCc2ccccc2)c(Cl)c1 (centres unmarked) [N--[3-Chloro-4-phenylethyloxyphenylacetyl]-N--methyl-2-hydroxy-2-phenyl-ethyl-amine]
